Test results taken from ChEMBL document CHEMBL1158404, “Antifungal activity of alkyl and heterocyclic aza-derivatives of gossypol as well as their complexes with NaClO4 against Fusarium oxysporum f. sp. lupini” (2009).

Columns and labels:
Type in all cases: functional
Fusarium oxysporum [1] = experiment: Antifungal activity against Fusarium oxysporum f. sp. lupini at 20 ug/ml after 192 hrs relative to control; conditions: read-out: GI
Fusarium oxysporum [2] = experiment: Antifungal activity against Fusarium oxysporum f. sp. lupini at 20 ug/ml after 192 hrs
Fusarium oxysporum [3] = experiment: Antifungal activity against Fusarium oxysporum f. sp. lupini at 1 ug/ml after 192 hrs relative to control; conditions: read-out: GI
Fusarium oxysporum [4] = experiment: Antifungal activity against Fusarium oxysporum f. sp. lupini at 1 ug/ml after 48 hrs
Fusarium oxysporum [5] = experiment: Antifungal activity against Fusarium oxysporum f. sp. lupini at 1 ug/ml after 144 hrs
Fusarium oxysporum [6] = experiment: Antifungal activity against Fusarium oxysporum f. sp. lupini at 20 ug/ml after 144 hrs
Fusarium oxysporum [7] = experiment: Antifungal activity against Fusarium oxysporum f. sp. lupini at 20 ug/ml after 48 hrs
Fusarium oxysporum [8] = experiment: Antifungal activity against Fusarium oxysporum f. sp. lupini at 1 ug/ml after 96 hrs
Fusarium oxysporum [9] = experiment: Antifungal activity against Fusarium oxysporum f. sp. lupini at 20 ug/ml after 96 hrs
Fusarium oxysporum [10] = experiment: Antifungal activity against Fusarium oxysporum f. sp. lupini at 1 ug/ml after 192 hrs
Fusarium oxysporum [11] = experiment: Antifungal activity against Fusarium oxysporum f. sp. lupini at 0.1 ug/ml after 96 hrs
Fusarium oxysporum [12] = experiment: Antifungal activity against Fusarium oxysporum f. sp. lupini at 0.5 ug/ml after 192 hrs
Fusarium oxysporum [13] = experiment: Antifungal activity against Fusarium oxysporum f. sp. lupini at 0.5 ug/ml after 48 hrs
Fusarium oxysporum [14] = experiment: Antifungal activity against Fusarium oxysporum f. sp. lupini at 0.1 ug/ml after 192 hrs
Fusarium oxysporum [15] = experiment: Antifungal activity against Fusarium oxysporum f. sp. lupini at 0.1 ug/ml after 48 hrs
Fusarium oxysporum [16] = experiment: Antifungal activity against Fusarium oxysporum f. sp. lupini at 0.1 ug/ml after 144 hrs
Fusarium oxysporum [17] = experiment: Antifungal activity against Fusarium oxysporum f. sp. lupini at 0.1 ug/ml after 192 hrs relative to control; conditions: read-out: GI
Fusarium oxysporum [18] = experiment: Antifungal activity against Fusarium oxysporum f. sp. lupini at 0.5 ug/ml after 192 hrs relative to control; conditions: read-out: GI
Fusarium oxysporum [19] = experiment: Antifungal activity against Fusarium oxysporum f. sp. lupini at 0.5 ug/ml after 144 hrs
Fusarium oxysporum [20] = experiment: Antifungal activity against Fusarium oxysporum f. sp. lupini at 0.5 ug/ml after 96 hrs

SMILES | inhibition of growth at 20 µg/mL (Fusarium oxysporum [1]) [%] | Radial growth inhibition of fungi (Ā) (mm) (Fusarium oxysporum [2]) | inhibition of growth at 1 µg/mL (Fusarium oxysporum [3]) [%] | Radial growth inhibition of fungi (Ā) (mm) (Fusarium oxysporum [4]) | Radial growth inhibition of fungi (Ā) (mm) (Fusarium oxysporum [5]) | Radial growth inhibition of fungi (Ā) (mm) (Fusarium oxysporum [6]) | Radial growth inhibition of fungi (Ā) (mm) (Fusarium oxysporum [7]) | Radial growth inhibition of fungi (Ā) (mm) (Fusarium oxysporum [8]) | Radial growth inhibition of fungi (Ā) (mm) (Fusarium oxysporum [9]) | Radial growth inhibition of fungi (Ā) (mm) (Fusarium oxysporum [10]) | Radial growth inhibition of fungi (Ā) (mm) (Fusarium oxysporum [11]) | Radial growth inhibition of fungi (Ā) (mm) (Fusarium oxysporum [12]) | Radial growth inhibition of fungi (Ā) (mm) (Fusarium oxysporum [13]) | Radial growth inhibition of fungi (Ā) (mm) (Fusarium oxysporum [14]) | Radial growth inhibition of fungi (Ā) (mm) (Fusarium oxysporum [15]) | Radial growth inhibition of fungi (Ā) (mm) (Fusarium oxysporum [16]) | inhibition of growth at 0.1 µg/mL (Fusarium oxysporum [17]) [%] | inhibition of growth at 0.5 µg/mL (Fusarium oxysporum [18]) [%] | Radial growth inhibition of fungi (Ā) (mm) (Fusarium oxysporum [19]) | Radial growth inhibition of fungi (Ā) (mm) (Fusarium oxysporum [20])
Cc1cc2c(c(O)c1-c1c(C)cc3c(c1O)/C(=C/NCCCN1CCOCC1)C(=O)C(O)=C3C(C)C)/C(=C/NCCCN1CCOCC1)C(=O)C(O)=C2C(C)C | 1 | 58.63 | 0.4 | 19.5 | 45.88 | 45.63 | 19.25 | 31.88 | 31.63 | 59 |  |  |  |  |  |  |  |  |  | 
C=CCN/C=C1\C(=O)C(O)=C(C(C)C)c2cc(C)c(-c3c(C)cc4c(c3O)/C(=C/NCC=C)C(=O)C(O)=C4C(C)C)c(O)c21 | 22.6 | 45.88 | 20.7 | 17.13 | 36.63 | 34.63 | 14.63 | 26 | 24.75 | 47 | 29.88 | 50 | 18.13 | 53.75 | 19.25 | 41.63 | 9.3 | 15.6 | 38.88 | 27.25
Cc1cc2c(c(O)c1-c1c(C)cc3c(c1O)/C(=C/NCCc1cccs1)C(=O)C(O)=C3C(C)C)/C(=C/NCCc1cccs1)C(=O)C(O)=C2C(C)C | 0.8 | 58.75 | 0.2 | 19.63 | 46 | 45.75 | 19.38 | 32 | 31.75 | 59.13 |  |  |  |  |  |  |  |  |  | 
Cc1cc2c(C(C)C)c(O)c(O)c(C=O)c2c(O)c1-c1c(C)cc2c(C(C)C)c(O)c(O)c(C=O)c2c1O [GOSSYPOL] | 22.4 | 46 | 20.3 | 17.25 | 36.75 | 35 | 14.88 | 26.25 | 25.25 | 47.25 | 30.63 | 50.5 | 18.63 | 55 | 19.63 | 42.75 | 7.2 | 14.8 | 39.5 | 27.88
COCCOC(C/N=C/c1c(O)c(O)c(C(C)C)c2cc(C)c(-c3c(C)cc4c(c3O)C(/C=N/CC(OCCOC)OCCOC)C(=O)C(O)=C4C(C)C)c(O)c12)OCCOC (stereo not given) | 1.5 | 58.38 | 1 | 19.75 | 45.63 | 45.5 | 19.63 | 32.13 | 31.63 | 58.63 |  |  |  |  |  |  |  |  |  | 
CCOC(=O)N1CCC(N/C=C2\C(=O)C(O)=C(C(C)C)c3cc(C)c(-c4c(C)cc5c(c4O)/C(=C/NC4CCN(C(=O)OCC)CC4)C(=O)C(O)=C5C(C)C)c(O)c32)CC1 | 0.4 | 59 | 0 | 19.88 | 46.25 | 46 | 19.63 | 32.25 | 32.13 | 59.25 |  |  |  |  |  |  |  |  |  | 
Cc1cc2c(c(O)c1-c1c(C)cc3c(C(C)C)c(O)c(O)c(/C=N/N4CCN(C)CC4)c3c1O)C(/C=N/N1CCN(C)CC1)C(=O)C(O)=C2C(C)C (stereo not given) | 1.3 | 58.5 | 0.8 | 19.38 | 45.75 | 45.75 | 19.25 | 31.88 | 31.63 | 58.75 |  |  |  |  |  |  |  |  |  | 
Cc1cc2c(c(O)c1-c1c(C)cc3c(c1O)/C(=C/NCCCN1CCCC1=O)C(=O)C(O)=C3C(C)C)/C(=C/NCCCN1CCCC1=O)C(=O)C(O)=C2C(C)C | 0.6 | 58.88 | 0 | 19.75 | 46.13 | 45.88 | 19.5 | 32.13 | 31.88 | 59.25 |  |  |  |  |  |  |  |  |  | 
Cc1cc2c(c(O)c1-c1c(C)cc3c(C(C)C)c(O)c(O)c(/C=N/N4CCN(CCO)CC4)c3c1O)C(/C=N/N1CCN(CCO)CC1)C(=O)C(O)=C2C(C)C (stereo not given) | 1.7 | 58.25 | 1.3 | 19.63 | 45.5 | 45.38 | 19.5 | 32 | 31.5 | 58.5 |  |  |  |  |  |  |  |  |  | 
COCCOCCOCCN/C=C1\C(=O)C(O)=C(C(C)C)c2cc(C)c(-c3c(C)cc4c(c3O)/C(=C/NCCOCCOCCOC)C(=O)C(O)=C4C(C)C)c(O)c21 | 25.7 | 44 | 22.8 | 14.88 | 35.25 | 34.13 | 14.13 | 25 | 24.13 | 45.75 | 27 | 48.5 | 16.38 | 51.75 | 16.75 | 39.25 | 12.7 | 18.1 | 36.88 | 25.75
Cc1cc2c(c(O)c1-c1c(C)cc3c(c1O)/C(=C/NCCOCCO)C(=O)C(O)=C3C(C)C)/C(=C/NCCOCCO)C(=O)C(O)=C2C(C)C | 23.6 | 45.25 | 21.9 | 16 | 35.88 | 34.5 | 14.38 | 25.75 | 24.5 | 46.25 | 28.5 | 49.5 | 17.63 | 52.63 | 18.13 | 40.38 | 11.2 | 16.5 | 38 | 26.5
COCC/N=C/c1c(O)c(O)c(C(C)C)c2cc(C)c(-c3c(C)cc4c(c3O)C(/C=N/CCOC)C(=O)C(O)=C4C(C)C)c(O)c12 (stereo not given) | 0.6 | 58.88 | 0.4 | 19.75 | 46.13 | 45.88 | 19.5 | 32.13 | 31.88 | 59 |  |  |  |  |  |  |  |  |  | 
